Source: patent US6890900B2, “Methods for treating or preventing diseases of the oral cavity” (Campina B.V., priority 2001, dated 2005)

Key:
Experiment in all cases: LF/GMP assay, viable plate count (pour plate) of broth culture
Type in all cases: cell-based
Conditions in all cases: for Log Difference: sialic acid 1,000 ppm vs 0 ppm, + = more growth
[1] = system: Actinobacillus haemophilus ATCC #43717
Protocol: (§1) Bacterial strains used in this study were Pseudomonas aeruginosa ATCC #27853, Streptococcus mutans ATCC #33535, Streptococcus pyogenes ATCC #19615, and Actinobacillus haemophilus ATCC #43717 and an oral swab from a healthy adult. Bacteria were grown on blood/BHT media (Brain Heart Infusion Agar with protease peptone, sodium chloride, glucose, di-sodium phosphate, and agar, Oxoid, Hampshire England, Sheep's Blood) in the presence of 5% CO2 at 35° C. […] One ml of the appropriate bacterial dilution was taken using a sterile pipette and introduced into 8 ml of sterilized BHI broth. […] By pipette, 9 ml of broth was placed into medium test tubes as means of a control and 8 ml test tubes were prepared for the concentration tests). […] This solution was filtered through a 0.45 μm filter. […] To study the kinetics of LF/GMP binding, each strain of bacteria was taken separately with a sterile pipette and placed into an 8 ml BHI broth test tube, vortexed, and incubated in the presence of 1 ml of LF or GMP for 18-24 hours at 35° C. with 5% CO2. In the combination procedure, 0.5 ml of both LF and […] were taken as 1 ml inoculations. One mL of each bacterial strain, plus one mL of sialic acid solution (1,000 ppm) were inoculated into test tubes filled with 8 mL of BHI broth. Each test tube was vortexed, incubated for 24 hours at 35° C. with 5% CO2, and then pour plated in BHI agar to obtain a plate count. This technique was used to determine the density of living (viable) cells in inoculated broth cultures. It involves plating a bacterial sample and counting the resulting colonies after incubation. A serial dilution of the original broth was taken prior to plating. The serial dilution is necessary to reduce the density of organisms in order to create countable plates. Only plates containing between 25 and 250 colonies are considered countable. Cell densities are traditionally recorded as CFU (colony forming unit)/ml. […] Formula: [formula] The assays required the use of a pour plate technique. The pour plate technique adds a step to the conventional serial dilution. The 1 ml of dilution is added to a warm emulsion of dilute nutrient (BHI) agar to produce an agar overlay in the petri plates. After incubation, the bacterial growth covers the entire plate but individual cellular movement has been restricted by the soft agar overlay. Each colony formed is assumed to have originated from a single CFU. The plates were gently mixed, inverted, and incubated for 18-24 hour at 35° C. Using a control (one broth tube inoculated with a bacterial strain, but no LF), the effectiveness of LF was examined. Each test tube containing a specified amount of LF (50, 100, 250, 500, 1,000 ppm and 3000 ppm) was diluted and plates were poured. […] A. haemophilus, S. mutans, S. pyrogenes and an oral culture were tested at 35° C. Pseudomonas aeruginosa was tested at both room temperature and 35° C. with 5% CO2. This was done because P. aeruginosa is not strictly an oral pathogen. It is commonly found in the environment in various conditions. It can be found in the environment and oral intake can cause inflammation in the oral cavity. Most normal oral bacteria are only found in the mouth and are not taken in from outside factors. Therefore, P. aeruginosa is a threat in both temperature settings. […] (see Table 2).

[2] = system: Streptococcus mutans ATCC #33535
Protocol: as §1

[3] = system: Pseudomonas aeruginosa ATCC #27853
Protocol: Bacterial strains used in this study were Pseudomonas aeruginosa ATCC #27853, Streptococcus mutans ATCC #33535, Streptococcus pyogenes ATCC #19615, and Actinobacillus haemophilus ATCC #43717 and an oral swab from a healthy adult. Bacteria were grown on blood/BHT media (Brain Heart Infusion Agar with protease peptone, sodium chloride, glucose, di-sodium phosphate, and agar, Oxoid, Hampshire England, Sheep's Blood) in the presence of 5% CO2 at 35° C. Bacteria were harvested by swabbing inoculated growth plates after 24 hours and diluting the colonies in 9 ml of deionized water (DI water) until a suspension of 0.5 McFarland Turbidity Standard was reached using the nephelometer (McFarland Turbidity Meter). The 0.5 McFarland value is approximately equivalent to 1.0×10^8 organisms. One ml of the appropriate bacterial dilution was taken using a sterile pipette and introduced into 8 ml of sterilized BHI broth. (Preparation of BHI broth: 37 g+1,000 ml DI water, Difco Laboratories. By pipette, 9 ml of broth was placed into medium test tubes as means of a control and 8 ml test tubes were prepared for the concentration tests).
This solution was filtered through a 0.45 μm filter. […] Example for calculating 2,500 ppm dilution (1,000 ppm=0.1%): [formula] [formula] [formula] […]
One mL of each bacterial strain, plus one mL of sialic acid solution (1,000 ppm) were inoculated into test tubes filled with 8 mL of BHI broth. Each test tube was vortexed, incubated for 24 hours at 35° C. with 5% CO2, and then pour plated in BHI agar to obtain a plate count.
This technique was used to determine the density of living (viable) cells in inoculated broth cultures. It involves plating a bacterial sample and counting the resulting colonies after incubation. A serial dilution of the original broth was taken prior to plating. The serial dilution is necessary to reduce the density of organisms in order to create countable plates. Only plates containing between 25 and 250 colonies are considered countable. Cell densities are traditionally recorded as CFU (colony forming unit)/ml. By convention, when 1.0 ml is inoculated onto a plate, the dilution factor (DF) is recorded as tenfold greater. Formula: [formula]
The assays required the use of a pour plate technique. The pour plate technique adds a step to the conventional serial dilution. The 1 ml of dilution is added to a warm emulsion of dilute nutrient (BHI) agar to produce an agar overlay in the petri plates. After incubation, the bacterial growth covers the entire plate but individual cellular movement has been restricted by the soft agar overlay. Each colony formed is assumed to have originated from a single CFU. The plates were gently mixed, inverted, and incubated for 18-24 hour at 35° C. […]

[4] = 24 hours at 35° C. with 5% CO2, listed as Sialic acid
[5] = sialic acid 1,000 ppm, 24 hours at 35° C. with 5% CO2
[6] = sodium bicarbonate pH 4.36, column 1,000 ppm

Structure (SMILES) | Log Difference ([1]; 24 hours at 35° C. with 5% CO2) [log] | Log Difference [1, 4] | plate count [1, 5] | Log Difference ([2]; 24 hours at 35° C. with 5% CO2) [log] | Log Difference [2, 4] | plate count [2, 5] | Log Difference ([3]; 24 hours at 35° C. with 5% CO2) | Log Difference [3, 4] | plate count [3, 5] | pour plate count [1, 6] | pour plate count [2, 6] | pour plate count [3, 6]
CC(=O)N[C@H]1[C@H]([C@H](O)[C@H](O)CO)OC(O)(C(=O)O)C[C@@H]1O (stereo partly drawn) [Sialic Acid, N-acetylneuraminic acid, reference compound] | 0 | did not reduce the bacterial growth | 2.9 × 10^8 | 0 | did not reduce the bacterial growth | 5.4 × 10^7 | ^+1 log | increased the amount of bacterial growth by one log | 1.0 × 10^9 | – | – | –
O=C([O-])O.[Na+] [Sodium Bicarbonate, Sodium bicarbonate] | – | – | – | – | – | – | – | – | – | 1.9 × 10^8 | 8.4 × 10^7 | 6.0 × 10^6
